According to patent US20060264439A1, “Inhibitors of polo-like kinase-1” (SuperGen, Inc., priority 2005, published 2006):

Target: T1, Plk-1 (Homo sapiens, UniProt P53350)
T1 construct: purchased Cyclex
Assay: ELISA-based Polo-like Kinase-1 activity assay (Cyclex)
Type: biochemical
Settings: compound at 10 uM, 10 mU purified Plk-1, 50 uM ATP, 30 minutes at 30° C.
Method: An ELISA-based Polo-like Kinase-1 activity assay (Cyclex, Nagano Japan) was used to confirm the Plk-1 inhibitory activity of the illustrative compound of the invention having the structure shown below. [drawing 39]
Briefly, 10 mU of purified Plk-1 (Cyclex) was incubated with the compound of interest in triplicate wells of a substrate-coated 96-well plate, along with 50 uM ATP and kinase buffer, for 30 minutes at 30° C. Wells were washed and probed with the anti-phospho-threonine antibody, incubated for 30 minutes at room temperature, then washed and probed again with an HRP-Anti Rabbit IgG. HRP substrate was added and the extent of phosphorylation was measured using a dual-wavelength spectrophotometer. At a concentration of 10 uM, compound (IB-10) inhibited Plk-1 activity in this assay by greater than 60%.
An ELISA-based Polo-like Kinase-1 activity assay (Cyclex, Nagano Japan) was used to confirm the Plk-1 inhibitory activity of the illustrative compound of the invention having the structure shown below (Compound 18, Table 1). [drawing 40]
Briefly, 10 mU of purified Plk-1 (Cyclex) was incubated with the compound in triplicate wells of a substrate-coated 96-well plate, along with 50 uM ATP and kinase buffer, for 30 minutes at 30° C. […] HRP substrate was added and the extent of phosphorylation was measured using a dual-wavelength spectrophotometer.

T1 sequence (P53350 whole entry): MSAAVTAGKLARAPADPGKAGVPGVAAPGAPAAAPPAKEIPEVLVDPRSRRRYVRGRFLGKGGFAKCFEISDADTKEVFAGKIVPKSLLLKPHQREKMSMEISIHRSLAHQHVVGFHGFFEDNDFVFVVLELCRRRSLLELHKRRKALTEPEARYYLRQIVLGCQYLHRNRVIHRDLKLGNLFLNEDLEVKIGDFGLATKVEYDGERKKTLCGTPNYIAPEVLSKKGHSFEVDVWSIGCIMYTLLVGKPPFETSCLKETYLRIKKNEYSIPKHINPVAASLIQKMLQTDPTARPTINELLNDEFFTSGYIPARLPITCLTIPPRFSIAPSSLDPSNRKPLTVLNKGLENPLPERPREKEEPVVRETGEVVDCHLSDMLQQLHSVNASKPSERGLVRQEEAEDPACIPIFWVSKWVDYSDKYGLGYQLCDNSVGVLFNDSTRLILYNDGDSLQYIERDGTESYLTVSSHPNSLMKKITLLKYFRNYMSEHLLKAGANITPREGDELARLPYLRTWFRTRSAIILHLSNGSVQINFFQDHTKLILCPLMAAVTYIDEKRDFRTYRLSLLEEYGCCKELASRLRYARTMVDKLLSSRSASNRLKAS

How did the “Plk-1 activity reduced to % of untreated controls” value (remaining activity) turn out when COc1cc2nncc(Nc3ccc(S(=O)(=O)NC(C)=O)cc3)c2cc1OC [Compound 18, N-Acetyl-4-(6,7-dimethoxy-cinnolin-4-ylamino)-benzenesulfonamide] was run?
The value was 88%.

With NC(=O)c1nnc2cc(Cl)c(F)cc2c1/N=C/c1ccc([N+](=O)[O-])cc1 [IB-10, (E)-4-(4-nitrobenzylideneamino)-7-chloro-6-fluorocinnoline-3-carboxamide] as the compound, how does the inhibition at 10 µM (read-out: inhibited Plk-1 activity) read?
The inhibition at 10 µM was greater than 60%.
